Measured values from patent US5374541A, “Combined use of β-galactosidase and sialyltransferase coupled with in situ regeneration of CMP-sialic acid for one pot synthesis of oligosaccharides” (priority 1993, dated 1994).
“Also recorded” adds a separate entry of the source. Where two headings read alike, the source gives them in different places.

Key:
[1] = aqueous buffers as are used here; cited from earlier work
[2] = molecular target: T1, α(2,6)sialyltransferase (EC 2.4.99.1) (Bos taurus, UniProt O18974); assay: Sialylation of prepared galactosyl glycosides by the sialyltransferase; assay type: biochemical, bovine; details: one pot reaction, result in words
T1 construct: literature kinetics (Beyer, Paulson) and synthesis tests
T1 sequence (O18974 1-405): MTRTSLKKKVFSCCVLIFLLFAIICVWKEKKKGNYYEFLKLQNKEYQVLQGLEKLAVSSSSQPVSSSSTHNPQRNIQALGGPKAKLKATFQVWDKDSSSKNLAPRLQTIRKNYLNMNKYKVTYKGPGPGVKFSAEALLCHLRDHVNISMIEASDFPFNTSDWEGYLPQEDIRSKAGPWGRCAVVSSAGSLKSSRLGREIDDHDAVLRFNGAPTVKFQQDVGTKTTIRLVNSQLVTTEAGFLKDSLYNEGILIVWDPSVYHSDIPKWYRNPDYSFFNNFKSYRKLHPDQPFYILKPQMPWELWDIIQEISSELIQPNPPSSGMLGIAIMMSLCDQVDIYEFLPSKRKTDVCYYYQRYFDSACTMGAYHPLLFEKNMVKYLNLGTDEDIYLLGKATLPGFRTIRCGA
Experimental: A representative synthesis of Neu5Acα(2,6)-LacNAc (Compound 1) is discussed below. To a 1.07 mL HEPES buffer (0.2M, 20 mM MgCl2, 5.3 mM MnCl2, 20 mM KCl, pH 7.5) containing 12.3 mg Neu5Ac (20 mM; provided by Dr. U. Kragl, Research Center, Julich, Germany), 180 mg Lac (250 mM), 265 mg GlcNAc (600 mM), 30.2 mg PEP (trisodium salt, 40 mM), CMP (2 mM) and ATP (0.2 mM) were added myokinase (MK, EC 2.7.4.3; 6 U), pyruvate kinase (PK, EC 2.7.1.40; 80 U), inorganic pyrophosphatase (PPase, EC 3.6.1.1; 4 U), CMP-Neu5Ac synthetase (EC 2.7.43; 0.32 U), α(2,6)sialyltransferase (EC 2.4.99.1; 0,052 U) and 1 mg of crude β-galactosidase (EC 3.2.1.23) from Bacillus Circulans (provided by Daiwa Kasei KK, Osaka, Japan). The total volume was adjusted to 2 mL.
In a similar manner, the sialylated saccharide (Compound 2) was also prepared. […] Compound 10 was prepared as follows.

[3] = molecular target: T2, α(2,3)sialyltransferase (EC 2.4.99.4) (Sus scrofa, UniProt Q02745); details: Table 1; cited from earlier work
T2 sequence (Q02745 1-343): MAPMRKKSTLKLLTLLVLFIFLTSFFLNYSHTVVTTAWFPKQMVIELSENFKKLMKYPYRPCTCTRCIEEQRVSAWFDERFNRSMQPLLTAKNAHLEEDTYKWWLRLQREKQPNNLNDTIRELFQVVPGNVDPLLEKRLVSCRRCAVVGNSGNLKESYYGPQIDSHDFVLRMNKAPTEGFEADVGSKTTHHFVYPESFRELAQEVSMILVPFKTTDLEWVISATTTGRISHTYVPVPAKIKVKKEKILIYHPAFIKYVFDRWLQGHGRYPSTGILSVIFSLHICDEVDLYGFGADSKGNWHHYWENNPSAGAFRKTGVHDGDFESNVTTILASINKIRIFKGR

[4] = molecular target: T3, α(2,6)sialyltransferase, rat liver (Rattus norvegicus, UniProt P13721); details: cited from earlier work; for substrate quality / sialylated product formation: Table 1 footnotes 4 and 5, rat liver α(2,6)sialyltransferase, Weinstein et al.
T3 sequence (P13721 1-403): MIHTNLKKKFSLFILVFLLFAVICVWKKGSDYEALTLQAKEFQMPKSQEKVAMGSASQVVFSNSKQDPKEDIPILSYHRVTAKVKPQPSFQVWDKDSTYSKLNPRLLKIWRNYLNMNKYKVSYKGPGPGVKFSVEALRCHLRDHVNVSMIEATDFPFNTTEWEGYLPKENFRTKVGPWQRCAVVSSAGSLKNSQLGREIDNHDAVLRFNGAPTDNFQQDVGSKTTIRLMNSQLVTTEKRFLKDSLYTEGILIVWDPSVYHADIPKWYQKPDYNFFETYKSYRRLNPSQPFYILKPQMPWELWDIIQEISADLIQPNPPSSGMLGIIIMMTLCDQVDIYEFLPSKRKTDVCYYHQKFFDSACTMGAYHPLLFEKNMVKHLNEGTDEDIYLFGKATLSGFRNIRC

[5] = molecular target: T3, α(2,6)sialyltransferase, rat liver; assay: Km and Vmax of acceptor molecules for rat liver α(2,6)sialyltransferase; assay type: biochemical; details: Table 1, footnoted values approximated from Weinstein et al.
Text: Km is the Michaelis constant in units of moles/liter. Vmax is the reaction velocity at a constant concentration of enzyme, and is in units of enzyme units/milligram, one enzyme unit being that amount of enzyme that will catalyze the transformation of one micromole of substrate per minute under optimal conditions. The value of Km /Vmax is the slope of the line obtained from a Lineweaver-Burk plot.
Values for Km and Vmax for several galactosyl glycosides are available in the published literature and can be obtained using well known enzymatic techniques.

[6] = molecular target: T4, α(2,3)sialyltransferase (EC 2.4.99.6) (Rattus norvegicus, UniProt Q02734); details: Table 1; cited from earlier work
T4 sequence (Q02734 1-374): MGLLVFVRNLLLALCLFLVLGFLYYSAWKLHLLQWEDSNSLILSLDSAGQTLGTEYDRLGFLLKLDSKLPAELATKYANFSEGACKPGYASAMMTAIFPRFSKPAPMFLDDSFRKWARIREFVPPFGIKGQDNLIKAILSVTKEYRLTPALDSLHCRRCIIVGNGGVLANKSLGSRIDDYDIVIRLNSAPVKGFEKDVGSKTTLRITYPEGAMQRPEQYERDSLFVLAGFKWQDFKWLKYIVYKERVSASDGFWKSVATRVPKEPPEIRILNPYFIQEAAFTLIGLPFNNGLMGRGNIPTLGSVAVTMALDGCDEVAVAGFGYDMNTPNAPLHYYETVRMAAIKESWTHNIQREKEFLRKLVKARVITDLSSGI

[7] = molecular target: T1, α(2,6)sialyltransferase (EC 2.4.99.1); details: cited from earlier work
[8] = system: B. circulans β-galactosidase (EC 3.2.1.23); assay: Relative rates of galactoside substrates with B. circulans β-galactosidase; assay type: biochemical, Bacillus circulans; details: Lac = 100
Text: That β-galactosidase accepts the following substrates with the indicated, parenthesized relative rates: Lac (100), o-nitrophenyl β-galactoside (10.6), methyl β-galactoside (1).

[9] = Table 1, α(2,6)sialyltransferase, rat liver
[10] = Table 1, α(2,6)sialyltransferase EC 2.4.99.1
[11] = α(2,6)sialyltransferase, Paulson et al.

**Q.** Which half-life [1] does the source give for `CC(=O)NC1C(O)CC(OP(=O)(O)OCC2OC(n3ccc(N)nc3=O)C(O)C2O)(C(=O)O)OC1C(O)C(O)CO` (stereo not shown) [CMP-sialic acid] here?
**A.** Its half-life is “only a few hours”.

**Q.** Which “substrate for the sialyltransferase / sialylated in the reaction” value [2] does the source give for `OC[C@H]1O[C@@H](O[C@H]2[C@H](O)[C@@H](O)C(O)S[C@@H]2CO)[C@H](O)[C@@H](O)[C@H]1O` (stereo partly shown) [Compound 3, Galβ1→4(5-thio)Glc] here?
**A.** The value was “not a substrate; also recorded: not sialylated”.

**Q.** With `[N-]=[N+]=N[C@H]1C(O)O[C@H](CO)[C@@H](O[C@@H]2O[C@H](CO)[C@H](O)[C@H](O)[C@H]2O)[C@@H]1O` (stereo partly shown) [Compound 4, Galβ1→4(2-N3)Glc] as the compound, how does the “substrate for the sialyltransferase / sialylated in the reaction” value [2] read?
**A.** The value was “very weak substrate; also recorded: sialylated, but poorly”.

**Q.** For `CC(=O)N[C@H]1C(O)O[C@H](CO)[C@H](O)[C@@H]1O[C@@H]1O[C@H](CO)[C@H](O)[C@H](O)[C@H]1O` (stereo partly shown) [Galβ1→3GalNAc], which Km [3] is on record?
**A.** Its Km is 0.21 mM.

**Q.** And the Vmax [3]?
**A.** The Vmax was 8.9 units/mg.

**Q.** And the “substrate quality / sialylated product formation” value [4]?
**A.** The value was “No sialylated product was reported to be formed”.

**Q.** And the Km/Vmax [5]?
**A.** Its Km/Vmax is “very large”.

**Q.** Which results are given for `CC(=O)N[C@H]1C(O)O[C@H](CO)[C@@H](O)[C@@H]1O[C@@H]1O[C@H](CO)[C@H](O)[C@H](O)[C@H]1O` (stereo partly shown) [Galβ1→3GlcNAc]?
**A.** Km [3]: 65 mM; Vmax [3]: 4.4 units/mg; Vmax [6]: 1.16 units/mg; substrate quality / sialylated product formation [4]: poor substrate

**Q.** What does the source list for `CC(=O)N[C@H]1C(O)O[C@H](CO)[C@@H](O[C@@H]2O[C@H](CO)[C@H](O)[C@H](O)[C@H]2O)[C@@H]1O` (stereo partly shown) [Galβ1→4GlcNAc]?
**A.** Km [3]: 42 mM; Vmax [3]: 0.11 units/mg; Vmax [6]: 0.75 units/mg; Vmax [4, 9]: 0.93 units/mg; Km ([4]; Table 1, α(2,6)sialyltransferase, rat liver, from Weinstein et al.): 1.62 mM; Vmax [7, 10]: 1 units/mg; Vmax [7, 11]: 1.00

**Q.** For `OC[C@H]1O[C@@H](O[C@H]2[C@H](O)[C@@H](O)C(O)O[C@@H]2CO)[C@H](O)[C@@H](O)[C@H]1O` (stereo partly shown) [Galβ1→4Glc], which “relative rate as substrate” value [8] is on record?
**A.** Its value is 100.

**Q.** And the Vmax [3]?
**A.** The Vmax was 0.62 units/mg.

**Q.** And the Km [6]?
**A.** The Km was 9.4 mM.

**Q.** What about the Vmax [6] of the same compound?
**A.** The Vmax was 0.91 units/mg.

**Q.** And the Vmax [4, 9]?
**A.** Its Vmax is 0.30 units/mg.

**Q.** And the Vmax [7, 10]?
**A.** Its Vmax is 1.02 units/mg.

**Q.** What about the Vmax [7, 11] of the same compound?
**A.** Its Vmax is 1.02.

**Q.** What does the source list for `CC(=O)N[C@H]1C(O)O[C@H](CO[C@@H]2O[C@H](CO)[C@H](O)[C@H](O)[C@H]2O)[C@@H](O)[C@@H]1O` (stereo partly shown) [Galβ1→6GlcNAc]?
**A.** Km [3]: 29 mM; Vmax [3]: 0.24 units/mg; Vmax [7, 10]: 0.03 units/mg; Vmax [7, 11]: 0.03; Vmax ([7]; α(2,6)sialyltransferase, low Vmax): 3%

**Q.** For `CC(=O)N[C@H]1[C@H](O[C@H]2[C@@H](O)[C@@H](CO)O[C@@H](O[C@H]3[C@H](O)[C@@H](O)C(O)O[C@@H]3CO)[C@@H]2O)O[C@H](CO)[C@@H](O)[C@@H]1O[C@@H]1O[C@H](CO)[C@H](O)[C@H](O)[C@H]1O` (stereo partly shown) [lacto-N-tetraose, Galβ1→3GlcNAcβ1→3Galβ1→4Glc], which Vmax [3] is on record?
**A.** The Vmax was 3.6 units/mg.

**Q.** And the Vmax [6]?
**A.** The Vmax was 1.00 units/mg.

**Q.** For `CO[C@@H]1O[C@H](CO)[C@H](O)[C@H](O)[C@H]1O` [methyl β-galactoside], which “relative rate as substrate” value [8] is on record?
**A.** Its value is 1.

**Q.** With `O=[N+]([O-])c1ccccc1O[C@@H]1O[C@H](CO)[C@H](O)[C@H](O)[C@H]1O` [o-nitrophenyl β-galactoside] as the compound, how does the “relative rate as substrate” value [8] read?
**A.** Its value is 10.6.
